Measurements taken from PubChem BioAssay (NCI).
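Growth conditions: 96-well plates. Treatment: test compound, 48 hours, 5 concentrations. Analysis: linear interpolation between bracketing concentrations; unreached endpoints set to highest concentration. TGI: total growth inhibition.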

How the values were obtained:
Assay in all cases: NCI-60 cell line screen, 48 h
PC-3 prostate = tested on: PC-3 prostate
SK-MEL-5 melanoma = tested on: SK-MEL-5 melanoma
HCC-2998 colon = tested on: HCC-2998 colon
DU-145 prostate = tested on: DU-145 prostate
HS 578T breast = tested on: HS 578T breast
MCF7 breast = tested on: MCF7 breast
A498 renal = tested on: A498 renal
COLO 205 colon = tested on: COLO 205 colon
UO-31 renal = tested on: UO-31 renal
SNB-75 CNS = tested on: SNB-75 CNS
NCI-H522 lung = tested on: NCI-H522 lung
LOX IMVI melanoma = tested on: LOX IMVI melanoma
MDA-MB-435 = tested on: MDA-MB-435
NCI-H460 lung = tested on: NCI-H460 lung
ACHN renal = tested on: ACHN renal

Row | SMILES | TGI (PC-3 prostate) [µM] | TGI (SK-MEL-5 melanoma) [µM] | TGI (HCC-2998 colon) [µM] | TGI (DU-145 prostate) [µM] | TGI (HS 578T breast) [µM] | TGI (MCF7 breast) [µM] | TGI (A498 renal) [µM] | TGI (COLO 205 colon) [µM] | TGI (UO-31 renal) [µM] | TGI (SNB-75 CNS) [µM] | TGI (NCI-H522 lung) [µM] | TGI (LOX IMVI melanoma) [µM] | TGI (MDA-MB-435) [µM] | TGI (NCI-H460 lung) [µM] | TGI (ACHN renal) [µM]
1 | CCCCCCCCCC1CC(=O)NCC(=O)NC(C(C)C)C(=O)NC(CC(C)C)C(=O)NC(C)C(=O)NC(C(C)C)C(=O)O1 (stereo not given) | 22.4 | > 61.6 | > 96.2 | > 74.9 | 53 | > 100 | > 55.4 | > 100 | > 100 | 18.2 | 35.2 | 30.8 | 49.8 | 23.6 | > 100
2 | CC(C)c1ccc2[nH]c(O)c(C3=Nc4ccccc4C3=O)c2c1 | 54.8 | > 100 | > 100 | 94.5 | 85.3 | 1.3 | 5.5 | > 100 | > 100 | 9.36 | 97 | > 100 | > 100 | > 100 | 18.6
3 | Cc1cc(-c2nc3cc(O)ccc3s2)ccc1N | > 100 | 48 | > 100 | > 100 | > 100 | > 100 | 61.7 | 49.8 | 78.8 | 95.5 | > 100 | > 100 | > 100 | > 100 | 74.7
4 | O=[N+]([O-])c1ccc(NC(=S)Nc2ccccn2)cc1 | > 100 | > 100 | > 100 | 35.5 | 63 | > 100 | 45.6 | > 94.5 | > 100 | 71.6 | > 100 | > 100 | > 100 | > 100 | > 100
5 | COC(=O)/C=C(/C(=O)OC)c1c(C)cc2c(C)cc(C)cc(C)c1-2 | 98.6 | 23.5 | > 100 | > 91.8 | 51.1 | 36.6 | 70.3 | 22.4 | 98.2 | > 72.2 | 28.4 | > 57.8 | > 30.5 | > 69.9 | > 100
6 | NS(=O)(=O)c1nnc(/N=C(/CCC(=O)O)C(=O)O)s1 | > 100 | > 100 | > 100 | > 100 | > 100 | > 100 | > 100 | > 100 | > 100 | > 100 | > 100 | > 100 | > 100 | > 100 | > 100
7 | CCSC(=O)/C=C1\CN(C(=O)OC(C)(C)C)C1C(=O)OC(C)(C)C (stereo not given) | 18.1 | 12.6 | 17.2 | 16.3 | 19.4 | 16.8 | 23.9 | 5.48 | 10 | 17.4 | 5.79 | 3.3 | 8.63 | 23.2 | 8.82
8 | O/N=C1\CCc2cc3c(cc21)CCC3 | > 100 | > 100 | > 100 | > 100 | > 100 | > 100 | > 100 | > 100 | > 100 | > 100 | > 100 | > 100 | > 100 | > 100 | > 100
9 | Cc1ccc(/C(O)=C/c2nc3ccccc3[nH]c2=O)c(C)c1 | > 61.5 | > 92.1 | > 100 | > 70.5 | 59.2 | > 100 | 9.12 | > 100 | 30.6 | 20.3 | 38.4 | > 100 | > 100 | 46.8 | 30
10 | C1=NCCNCCN=Cc2ccccc2OCc2cccc(n2)COc2ccccc21 | > 95.3 | > 49.5 | > 55.5 | > 100 | > 100 | > 56.9 | > 100 | > 100 | > 30.7 | > 31.2 | > 66.8 | 34 | > 68.7 | > 100 | > 100
11 | O=[N+]([O-])/C=C/COCc1cc2c(cc1Br)OCO2 | 25.6 | 37.1 | 34.2 | 35.5 | 50.3 | 33.5 | 86.4 | 43.6 | 32.3 | 31.7 | 50.7 | > 100 | 27.1 | > 100 | 30
12 | Cc1nn(C(=O)Cc2ccccc2)c2c1C(c1ccccc1[N+](=O)[O-])SC(N)=N2 (stereo not given) | > 100 | > 100 | > 100 | > 100 | > 100 | > 100 | > 100 | > 100 | > 100 | > 100 | > 100 | > 100 | > 100 | > 100 | > 100
13 | CCOC(=O)C(=CNC(=S)Nc1c(CC)cccc1CC)C(=O)OCC | > 100 | > 100 | > 100 | > 100 | > 100 | > 100 | > 100 | > 100 | > 100 | 92.6 | > 100 | > 100 | > 100 | > 100 | > 100
14 | COC(=O)c1c(O)ccc2c1c1c(n2-c2ccc(OC)cc2)C(=O)c2ccccc2C1=O | 74.1 | > 100 | 11.3 | 48.3 | 46.4 | 72.4 | > 100 | 3.52 | 31.1 | 51.5 | 56.3 | > 100 | > 100 | 61.7 | 25.6
